Assay results taken from patent US20180370912A1, “COMPOUNDS AND METHODS FOR TREATING DISEASES MEDIATED BY PROTEIN DISULFIDE ISOMERASE” (Beth Israel Deaconess Medical Center, Inc., priority 2017, published 2018).

Assays:
[1] = test system: platelet accumulation at sites of laser-induced injury; test: Thrombus formation in cremaster arterioles after laser-induced injury, intravital microscopy; type: in vivo; conditions: mice
Procedure: Intravital video microscopy of the cremaster muscle microcirculation was performed as described previously in Falati, S., Gross, P., Merrill-Skoloff, G., Furie, B. C. & Furie, Nat Med 8, 1175-81. (2002); and Jasuj a, R. et al., J Clin Invest 122, 2104-2113 (2012). Digital images were captured with an Orca Flash 4.0v2 sCMOS camera (Hamamatsu Photonics K.K., Shizuoka Pref., Japan). Representative images are presented, but the median curves include the full data. The kinetics of platelet thrombus formation were analyzed by determining median fluorescence values over time in ˜30-40 thrombi in three mice.
Two hours prior to surgery, 100 mg/kg of the suicide P450 inhibitor 1-aminobenzotriazole (ABT) was administered intraperioneally to each mouse. The cremaster muscle was then surgically exposed. Prior to arteriolar wall injury, DyLight-labeled antibodies were infused intravenously together with drug or vehicle control. Injury to a cremaster arteriolar vessel (30-50-μm diameter) was induced with a MicroPoint laser system Andor Andor Technology, Ltd., Belfast Ireland) focused through the microscope objective, parfocal with the focal plane and tuned to 440 nm through a dye cell containing 5 mM coumarin in methanol. Data were captured digitally from two fluorescence channels, 488/520 nm and 647/670 nm, as well as a brightfield channel Data acquisition was initiated both prior to and following an ablation laser pulse for each injury. The microscope system was controlled and images were collected and analyzed using SlideBook 6.0 (Intelligent Imaging Innovations, Denver, Colo.).
Prior to induction of the thrombus but after injection of the fluorescently labeled antibody, approximately 30 time points were recorded. Subsequently, a thrombus is initiated and recorded for approximately 170 seconds. […] The mean of maximal intensity values in the upstream region for each frame is calculated and used as the threshold to define those pixels containing signal. […] Using this information, the actual integrated intensity for each frame is calculated according to the following formula: […]

[2] = target: T1, PDI fragments abb′ and b′xa′ (Homo sapiens, UniProt P07237); test: Di-eosin-GSSG reductase assay of PDI fragments; type: biochemical; conditions: 30 μM, FIG. 5a
T1 construct: abb′ (residues 1-331), or b′xa′ (residues 219-462); His; made in house; host or cells: Escherichia coli Origami B (DE3), pET-15b
T1 sequence (P07237 18-348): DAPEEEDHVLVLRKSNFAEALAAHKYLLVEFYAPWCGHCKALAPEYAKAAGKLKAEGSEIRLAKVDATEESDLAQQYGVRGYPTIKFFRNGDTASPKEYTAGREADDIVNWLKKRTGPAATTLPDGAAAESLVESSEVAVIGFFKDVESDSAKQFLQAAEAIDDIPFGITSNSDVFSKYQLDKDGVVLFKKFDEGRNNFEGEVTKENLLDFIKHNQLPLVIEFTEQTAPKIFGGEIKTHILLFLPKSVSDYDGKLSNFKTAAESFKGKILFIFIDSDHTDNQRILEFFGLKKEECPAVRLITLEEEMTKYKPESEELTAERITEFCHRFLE
Procedure: The probe di-eosin glutathione disulfide, di-eosin-GSSG, was prepared as previously described in Raturi, A., Vacratsis, P. O., Seslija, D., Lee, L. & Mutus, B., Biochem J 391, 351-357 (2005). Reductase activity of purified thiol isomerases and PDI domains was monitored in a 96-well fluorescence plate format. PDI, AGHA-PDI, ERpS, ERp57, ERp72 and PDI domains were assayed at 50 nM in the presence or absence of the indicated small molecules, peptides or cathepsin G. The assay included 100 mM potassium phosphate (pH 7.4) containing 2 mM EDTA, 5 μM DTT and 150 nM of the di-eosin GSSG probe. The increase in fluorescence was determined for 20 minutes by excitation at 520 nm and emission at 550 nm in a Synergy Biotek 4. The reduction of 150 nM di-eosin-GSSG by 5 μM DTT in the presence or absence of mentioned small molecules, peptides or proteins served as a negative control.

human wild-type PDI = target: T2, human wild-type PDI (Homo sapiens, UniProt P07237); test: Redox potential determination by differential cysteine alkylation and mass spectrometry
T2 construct: FLAG; made in house; host or cells: Escherichia coli Origami B (DE3), pET-15b
T2 sequence (P07237 18-508): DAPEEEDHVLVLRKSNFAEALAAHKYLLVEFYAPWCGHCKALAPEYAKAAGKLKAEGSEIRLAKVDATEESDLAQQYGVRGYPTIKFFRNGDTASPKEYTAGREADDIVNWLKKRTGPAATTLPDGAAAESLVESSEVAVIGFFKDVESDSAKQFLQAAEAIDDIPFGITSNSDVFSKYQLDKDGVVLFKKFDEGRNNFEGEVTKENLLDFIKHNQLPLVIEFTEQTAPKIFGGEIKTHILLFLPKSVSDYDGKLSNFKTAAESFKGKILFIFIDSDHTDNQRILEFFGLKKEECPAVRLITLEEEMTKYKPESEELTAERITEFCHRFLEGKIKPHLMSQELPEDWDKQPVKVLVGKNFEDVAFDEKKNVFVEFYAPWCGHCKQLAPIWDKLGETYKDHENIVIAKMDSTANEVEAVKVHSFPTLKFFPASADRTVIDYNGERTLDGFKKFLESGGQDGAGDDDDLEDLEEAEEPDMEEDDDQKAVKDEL
Procedure: The redox potentials of the a (Cys53-Cys56) and a′ (Cys397-Cys400) active-site dithiols/disulfides of human wild-type PDI in the absence or presence of bepristat 2b were determined by differential cysteine alkylation and mass spectrometry. Recombinant PDI (5 μM) was incubated in the absence or presence of bepristat 2b (50 μM) in argon-flushed phosphate-buffered saline containing 0.1 mM EDTA, 0.2 mM oxidized glutathione (GSSG, Sigma) and various concentrations of reduced glutathione (GSH, Sigma) for 18 h at room temperature. Microcentrifuge tubes were flushed with argon prior to sealing to prevent oxidation by ambient air during the incubation period. […]
The fraction of reduced active-site disulfide bond was measured from the relative ion abundance of peptides containing ^12C-IPA and ^13C-IPA. […] The area was calculated using the automated peak detection function built into the software. […] The results were expressed as the ratio of reduced to oxidized protein and fitted to equation 1: […]
where R is the fraction of reduced protein at equilibrium, B is the baseline fraction of the cysteine in the population that is in the reduced state and Keq is the equilibrium constant. The standard redox potential (E^0′) of the PDI active-site disulfides were calculated using the Nernst equation (equation 2): […]

Structure (SMILES): CCOC(=O)c1c(CNCCN(CC)CC)n(-c2ccccc2)c2cc(Br)c(O)cc12 [bepristat 2a]
- tolerability in vivo ([1]; 15 mg/kg infusion): tolerated in vivo
- inhibition of platelet accumulation at sites of laser-induced injury ([1]; infusion 15 mg/kg body weight, p=0.02, FIG. 3c): 14.9 % of controls
- thrombus formation in vivo ([1]; laser injury of cremaster arterioles): potently inhibits thrombus formation
- di-eosin-GSSG cleavage by abb′ fragment [2]: failed to augment activity
- active site disulfide bond formation under equilibrium conditions (human wild-type PDI): impairs active site disulfide bond formation
